Reference: US10793543B2, “Selective C-KIT kinase inhibitor” (PRECEDO PHARMACEUTICALS CO., LTD, priority 2016, dated 2020)

Columns and labels:
[1] = tested on: K562 cells (P210 Bcr-Abl); test: Cancer cell proliferation, CCK-8, K562; type: cell-based; details: Homo sapiens; K562, P210 Bcr-Abl, 72 hours, CCK-8; read-out: GI50
Description: (§1) In the present example, the following cells were used: chronic myelogenous leukemia cells K562 (expressing P210 Bcr-Abl mutant gene), human megakaryocytic leukemia cells MEG-01 (expressing P210 Bcr-Abl mutant gene), human peripheral blood basophilic leukemia cells Ku812 (expressing Bcr-Abl mutant gene) (all above cells purchased from ATCC, USA), human gastrointestinal stromal tumor cell lines GIST-T1 cells (expressing wild-type C-KIT gene) (purchased from Cosmo Bio Co., Ltd., Japan), human gastrointestinal stromal tumor cell lines GIST-882 cells (expressing wild-type C-KIT gene) (presented by the Professor Gray Lab, Dana-Farber Cancer Institute, Harvard University, USA), mouse pro-B cells BaF3 (purchased from ATCC, USA).
(§2) The cells were incubated for 72 hours, and then the number of viable cells was quantified with a microplate reader by using CCK-8 Cell Viability Assay Kit (purchased from Bestbio Company, Shanghai, China) (CCK-8 can be reduced by dehydrogenase in living cells to a highly water-soluble yellow formazan product, and the amount of formazan produced is proportional to the number of living cells).

[2] = tested on: Tel-cKit-BaF3 cells (KIT WT); test: Cell proliferation, CCK-8, Tel-cKit-BaF3; type: cell-based; details: Mus musculus, 72 hours
Description: (§3) In addition, in the present example, further uses: mouse P210/BaF3 (stably expressing P210 Bcr-Abl mutant gene), mouse Tel-ABL-BaF3 (stably expressing wild-type ABL kinase), mouse Tel-cKit-BaF3 (stably expressing C-KITwild-type kinase), mouse Tel-cKit/V559D-BaF3 (stably expressing C-KIT V559D mutant kinase), mouse Tel-cKit/V559D/V654A-BaF3 (stably expressing C-KIT V559D/V654A mutant kinase), mouse Tel-cKit/N822K-BaF3 (stably expressing C-KIT N822K mutant kinase), mouse Tel-cKit/V654A-BaF3 (stably expressing C-KIT V654A mutant kinase), mouse Tel-cKit/L567P-BaF3 (stably expressing C-KIT L567P mutant kinase), mouse Tel-cKit/T670I-BaF3 (stably expressing C-KIT T670I mutant kinase), mouse Tel-PDGFRα-BaF3 (stably expressing PDGFRα kinase), mouse Tel-PDGFRβ-BaF3 (stably expressing PDGFRβ kinase), mouse Tel-VEGFR2-BaF3 (stably expressing VEGFR2 kinase), mouse Tel-RET-BaF3 (stably expressing RET kinase). The above cell lines were all constructed by our laboratory according to the following method: the kinase region sequences of human P210 Bcr-Abl, ABL, C-KIT, C-KIT V559D, C-KIT V559D/V654A, C-KIT N822K, C-KIT V654A, C-KIT L567P, C-KIT T670I, PDGFRα, PDGFRβ, VEGFR2, RET were amplified respectively by PCR, inserted respectively into MSCV-Puro vectors harboring N-terminal TEL fragment and/or NPM fragment and/or TPR fragment (Clontech), then the vectors were stably transfected into mouse BaF3 cells by retrovirus methods and growth factor IL-3 was removed, eventually obtaining cell lines that are transferred protein (P210 Bcr-Abl, ABL, C-KIT, C-KIT V559D, C-KIT V559D/V654A, C-KIT N822K, C-KIT V654A, C-KIT L567P, C-KIT T670I, PDGFRα, PDGFRβ, VEGFR2, RET)-dependent.
as §2

[3] = tested on: Tel-VEGFR2-BaF3 cells (VEGFR2); test: Cell proliferation, CCK-8, Tel-VEGFR2-BaF3; type: cell-based; details: Mus musculus, Tel-VEGFR2-BaF3, VEGFR2, 72 hours
Description: as §3, §2

BaF3 cells = test: Cell proliferation, CCK-8, parental BaF3; type: cell-based; details: Mus musculus, 72 hours
Description: as §1, §2

[4] = tested on: cells expressing wild-type ABL and mutant Bcr-Abl kinase; test: Cell proliferation, text summary for ABL/Bcr-Abl cells; type: cell-based; details: summary of Table 2
Description: as §1, with “USA). […]” for “USA).”
as §2

GIST-T1 cells = test: Apoptosis, PARP and Caspase 3 cleavage by Western Blot, GIST-T1; type: cell-based, human; details: GIST-T1, 0.3 μM, 48 hours
Description: The effects of different concentrations of drugs on protein cleavage of DNA repairase poly(ADP-ribose) polymerase (PARP) and Caspase (cysteinyl aspartate-specific proteinase) 3 at different periods of time were examined by Western Blot.

[5] = tested on: gastrointestinal stromal tumor cell lines GIST-882; test: Mouse tumor model of GIST-882 cells; type: in vivo; details: GIST-882 model; for tumor inhibition rate: Day 21 after administration
Procedure: 1. 4-6 week-old Bal b/c female mice were purchased from Shanghai SLAC Experimental Animal Co., Ltd., and were raised in a SPF-level laboratory. Drinking water and padding were both subjected to aseptic processing via high-pressure disinfection, and all operations of the mice were conducted under aseptic conditions;
2. About 5×10^6 gastrointestinal stromal tumor cell lines GIST-T1 or GIST-882 (purchased from ATCC) were respectively injected subcutaneously at left side back of all mice at Day 0;
5. Mice were sacrificed on Day 36 (for GIST-882 mouse model) or Day 43 (GIST-T1 mouse model) and subcutaneous tumors were taken out and weighed for comparison;
6. Tumor tissue specimens were prepared into protein lysate samples for further usage;
7. Growth trend of subcutaneous tumors from Day 16 to Day 43 was derived, and tumor volume was calculated as length×width×width/2 mm^3.

[6] = Acute toxicity assay in mice, single oral gavage; type: in vivo; details: for Number of death (number of death/number of animals in each group): female mice, 7 days observation
Procedure: 1. 4-6 week-old Bal b/c female mice were purchased from Shanghai SLAC Experimental Animal Co., Ltd., and were raised in a SPF-level laboratory. Drinking water and padding were both subjected to aseptic processing via high-pressure disinfection, and all operations of the mice were conducted under aseptic conditions; 10 healthy mice were selected, and were balanced and randomly divided into 5 groups according to their weights.
2. Specific Information for Administration
Route of administration: oral gavage
Observation period: 7 days.
3. Observation Indicators
Weighing frequency: upon grouping, the day of administration (D0) to the seventh day after administration (D7). Based on the mouse weight on D0 (starting value of 100%), the graph of the relative body weight over time was plotted.
3.2. Clinical Symptoms Observation
Strict observation was carried out within 4 hours after administration, and then observation was carried out twice a day for a total of 7 days. Observation was carried out and abnormal symptoms or phenomena in each of animals were recorded.
The number of animals died in each of dosage groups during the observation period.
Comprehensive determination was performed based on animal mortality, clinical symptoms and body weights.

Question: Which results are given for Cc1ccc(NC(=O)c2cccc(C(F)(F)F)c2)cc1OC1CCN(C(=O)c2ccncc2)CC1 [Compound 4]?
Answer: GI50 [1]: > 10000 nM; GI50 [2]: 190 nM; GI50 [3]: 347 nM; GI50 (BaF3 cells): > 10000 nM; GI50 [4]: > 5000 nM; cleavage of PARP and Caspase 3 (GIST-T1 cells): significant cleavage; tumor inhibition rate ([5]; 50 mg/kg oral daily): 44%; tumor inhibition rate ([5]; 100 mg/kg oral daily): 58%; effect on body weight of mice ([5]; oral daily dosing): no effect on the body weight of mice; Number of death (number of death/number of animals in each group) ([6]; 250 mg/kg single oral gavage): ♀: 0/2:; Number of death (number of death/number of animals in each group) ([6]; 500 mg/kg single oral gavage): ♀: 0/2:; effect on mouse weight ([6]; 1000 mg/kg single oral gavage): no significant effect on mouse weight; Number of death (number of death/number of animals in each group) ([6]; 1000 mg/kg single oral gavage): ♀: 0/2:; effect on mouse weight ([6]; 2000 mg/kg single oral gavage): decreased slightly; Number of death (number of death/number of animals in each group) ([6]; 2000 mg/kg single oral gavage): ♀: 0/2:; mouse organs on dissection ([6]; dissected after 7 days, single oral gavage): no obvious abnormalities; mice died ([6]; mouse, in vivo): no mouse died; maximum tolerated dosage ([6]; mouse, single oral gavage): 2000 mg/kg
